From patent US20210189342A1, “COMPOSITIONS AND METHODS FOR MODULATING MONOCYTE AND MACROPHAGE INFLAMMATORY PHENOTYPES AND IMMUNOTHERAPY USES THEREOF” (Verseau Therapeutics, Inc., priority 2018, published 2021)

What follows are substances tested on SIGLEC9 (assay: siRNA dose response, SIGLEC9 mRNA knockdown, Dual-Glo Luciferase Assay). Settings: Hepa1-6 + reporter plasmid, 24 hr.
Assay type: cell-based, human
Procedure: (§1) Dose response curves for siRNAs were generated in vitro using a variety of cell lines according to Table 4.
(§2) Briefly, cells were seeded in 96-well plates and reverse transfected with siRNA, Lipofectamine® 2000 (0.5 uL/well; ThermoFisher), and, in some cases, a reporter plasmid (50 ng/well). The reporter plasmid (psiCHECK™-2, Promega) encoded both firefly luciferase and the gene of interest fused to renilla luciferase; silencing of the gene of interest results in proportional silencing of renilla luciferase but leaves firefly luciferase unaffected as an internal control.
(§3) After 24 hr incubation at 37° C., mRNA knockdown was measured using an endpoint assay. For targets without a reporter plasmid, a branched DNA (bDNA) assay was performed according to the manufacturer's instructions (QuantiGene® Singleplex Gene Expression Assay, ThermoFisher) to measure both the target gene and GAPDH (housekeeping gene) mRNA. Data are plotted as siRNA concentration (nM) vs. remaining mRNA (ratio of target gene to GAPDH, normalized to mock siRNA-transfected cells). For targets with a reporter plasmid, a Dual-Glo® Luciferase Assay was performed according to the manufacturer's instructions (Promega) to measure firefly and renilla luciferase expression. Data are plotted as siRNA concentration (nM) vs. remaining mRNA (ratio of renilla to firefly luminescence, normalized to mock siRNA-transfected cells).
(§4) For all dose response curves, a 4-parameter logistic model was applied to determine the IC50 of each siRNA sequence (Table 5 and FIG. 2). Data shown in Table 5 and FIG. 2 represent the mean of quadruplicates, +/−standard deviation.
“XD-09180: siRNA targeting SIGLEC9 (sense 5'-acAAGuAAAcuGcuGacGAdTsdT-3'; antisense 5'-UCGUcAGcAGUUuACUUGUdTsdT-3'; RNA with 2'-O-methyl and phosphorothioate modifications, case key not given here, as printed in the source, key not given here)” was tested, and the IC50 was 0.04 nM.
“XD-09181: siRNA targeting SIGLEC9 (sense 5'-guAAAcuGcuGAcgAuGcAdTsdT-3'; antisense 5'-UGcAUCGUcAGcAGUUuACdTsdT-3'; RNA with 2'-O-methyl and phosphorothioate modifications, case key not given here, as printed in the source, key not given here)” showed an IC50 of 0.286 nM.
“XD-09182: siRNA targeting SIGLEC9 (sense 5'-ucGcAuGGcuGGAuuuAccdTsdT-3'; antisense 5'-GGuAAAUCcAGCcAUGCGAdTsdT-3'; RNA with 2'-O-methyl and phosphorothioate modifications, case key not given here, as printed in the source, key not given here)” was tested, and the IC50 was 0.837 nM.
“XD-09183: siRNA targeting SIGLEC9 (sense 5'-guuccGGGAAGGGgccAAudTsdT-3'; antisense 5'-AUUGGCCCCUUCCCGGAACdTsdT-3'; RNA with 2'-O-methyl and phosphorothioate modifications, case key not given here, as printed in the source, key not given here)” gave an IC50 of 0.229 nM.
In the case of “XD-09184: siRNA targeting SIGLEC9 (sense 5'-ggGccAAuAcAGAccAGGAdTsdT-3'; antisense 5'-UCCUGGUCUGuAUUGGCCCdTsdT-3'; RNA with 2'-O-methyl and phosphorothioate modifications, case key not given here, as printed in the source, key not given here)”, the IC50 is reported as 0.127 nM.
“XD-09185: siRNA targeting SIGLEC9 (sense 5'-ccAGAAGAAGuGAuGcGGGdTsdT-3'; antisense 5'-CCCGcAUcACUUCUUCUGGdTsdT-3'; RNA with 2'-O-methyl and phosphorothioate modifications, case key not given here, as printed in the source, key not given here)” was tested, and the IC50 was 0.094 nM.
In the case of “XD-09186: siRNA targeting SIGLEC9 (sense 5'-ucAccGGcucucuguGAAudTsdT-3'; antisense 5'-AUUcAcAGAGAGCCGGUGAdTsdT-3'; RNA with 2'-O-methyl and phosphorothioate modifications, case key not given here, as printed in the source, key not given here)”, the IC50 is reported as 0.488 nM.
Work on “XD-09187: siRNA targeting SIGLEC9 (sense 5'-gaccAcGaacAAGaccGucdTsdT-3'; antisense 5'-GACGGUCUUGUUCGUGGUCdTsdT-3'; RNA with 2'-O-methyl and phosphorothioate modifications, case key not given here, as printed in the source, key not given here)” yielded an IC50 of 0.406 nM.
With “XD-09188: siRNA targeting SIGLEC9 (sense 5'-gaAcAAGAccGuccAucucdTsdT-3'; antisense 5'-GAGAUGGACGGUCUUGUUCdTsdT-3'; RNA with 2'-O-methyl and phosphorothioate modifications, case key not given here, as printed in the source, key not given here)” the IC50 was 0.148 nM.
In the case of “XD-09189: siRNA targeting SIGLEC9 (sense 5'-agAccGuccAucucAAcGudTsdT-3'; antisense 5'-ACGUUGAGAUGGACGGUCUdTsdT-3'; RNA with 2'-O-methyl and phosphorothioate modifications, case key not given here, as printed in the source, key not given here)”, the IC50 is reported as 0.694 nM.
In the case of “XD-09190: siRNA targeting SIGLEC9 (sense 5'-ccGuccAucucAAcGuGucdTsdT-3'; antisense 5'-GAcACGUUGAGAUGGACGGdTsdT-3'; RNA with 2'-O-methyl and phosphorothioate modifications, case key not given here, as printed in the source, key not given here)”, the IC50 is reported as 0.905 nM.
In the case of “XD-09192: siRNA targeting SIGLEC9 (sense 5'-caGuAuccAcAGucuuGGGdTsdT-3'; antisense 5'-CCcAAGACUGUGGAuACUGdTsdT-3'; RNA with 2'-O-methyl and phosphorothioate modifications, case key not given here, as printed in the source, key not given here)”, the IC50 is reported as 0.236 nM.
“XD-09193: siRNA targeting SIGLEC9 (sense 5'-guAuccAcAGucuuGGGAAdTsdT-3'; antisense 5'-UUCCcAAGACUGUGGAuACdTsdT-3'; RNA with 2'-O-methyl and phosphorothioate modifications, case key not given here, as printed in the source, key not given here)” was tested, and the IC50 was 0.459 nM.
In the case of “XD-09194: siRNA targeting SIGLEC9 (sense 5'-cucAGcAGGucuAccuGAAdTsdT-3'; antisense 5'-UUcAGGuAGACCUGCUGAGdTsdT-3'; RNA with 2'-O-methyl and phosphorothioate modifications, case key not given here, as printed in the source, key not given here)”, the IC50 is reported as 5.63 nM.
“XD-09195: siRNA targeting SIGLEC9 (sense 5'-gcGuGGGAGAuAcgGGcAudTsdT-3'; antisense 5'-AUGCCCGuAUCUCCcACGCdTsdT-3'; as printed in the source, key not given here)” showed an IC50 of 0.125 nM.
Work on “XD-09197: siRNA targeting SIGLEC9 (sense 5'-ggAGAuAcGGGcAuAGAGGdTsdT-3'; antisense 5'-CCUCuAUGCCCGuAUCUCCdTsdT-3'; as printed in the source, key not given here)” yielded an IC50 of 0.851 nM.

Each substance was assayed on CD84 (assay: siRNA dose response, CD84 mRNA knockdown, Dual-Glo Luciferase Assay). Settings: Hepa1-6 + reporter plasmid, 24 hr.
Assay type: cell-based, human
Procedure: as §1, §2, §3, §4
“XD-09610: siRNA targeting CD84 (sense 5'-accAAAAAuuAcAcAGAGudTsdT-3'; antisense 5'-ACUCUGUGuAAUUUUUGGUdTsdT-3'; as printed in the source, key not given here)” showed an IC50 of 0.047 nM.
Substance “XD-09611: siRNA targeting CD84 (sense 5'-gaGGGuAAuGuccuucAAAdTsdT-3'; antisense 5'-UUUGAAGGAcAUuACCCUCdTsdT-3'; as printed in the source, key not given here)” has an IC50 of 0.082 nM.
In the case of “XD-09612: siRNA targeting CD84 (sense 5'-gguAAuGuccuucaAAucudTsdT-3'; antisense 5'-AGAUUUGAAGGAcAUuACCdTsdT-3'; as printed in the source, key not given here)”, the IC50 is reported as 0.351 nM.
“XD-09613: siRNA targeting CD84 (sense 5'-ucAuAuGAucAuuuAAGGAdTsdT-3'; antisense 5'-UCCUuAAAUGAUcAuAUGAdTsdT-3'; RNA with 2'-O-methyl and phosphorothioate modifications, case key not given here, as printed in the source, key not given here)” gave an IC50 of 0.241 nM.
“XD-09614: siRNA targeting CD84 (sense 5'-gaAcAcAGuuuAuuccGAAdTsdT-3'; antisense 5'-UUCGGAAuAAACUGUGUUCdTsdT-3'; as printed in the source, key not given here)” gave an IC50 of less than 0.005 nM.
For “XD-09615: siRNA targeting CD84 (sense 5'-ggAAcuGGGuAuAauccAAdTsdT-3'; antisense 5'-UUGGAUuAuACCcAGUUCCdTsdT-3'; as printed in the source, key not given here)”, the IC50 was 0.048 nM.
In the case of “XD-09616: siRNA targeting CD84 (sense 5'-gcAccAAcuAccAuuAGcAdTsdT-3'; antisense 5'-AGCuAAUGGuAGUUGGUGCdTsdT-3'; RNA with 2'-O-methyl and phosphorothioate modifications, case key not given here, as printed in the source, key not given here)”, the IC50 is reported as 0.067 nM.
Substance “XD-09617: siRNA targeting CD84 (sense 5'-cacuAcAGuuAAcgcuGAAdTsdT-3'; antisense 5'-UUcAGCGUuAACUGuAGUGdTsdT-3'; as printed in the source, key not given here)” has an IC50 of 0.01 nM.
Substance “XD-09618: siRNA targeting CD84 (sense 5'-gguAucAGGAAucaAAAuudTsdT-3'; antisense 5'-AAUUUUGAUUCCUGAuACCdTsdT-3'; as printed in the source, key not given here)” has an IC50 of less than 0.005 nM.
“XD-09619: siRNA targeting CD84 (sense 5'-ccuuAcAGcAuAAcuAAuudTsdT-3'; antisense 5'-AAUuAGUuAUGCUGuAAGGdTsdT-3'; RNA with 2'-O-methyl and phosphorothioate modifications, case key not given here, as printed in the source, key not given here)” showed an IC50 of less than 0.005 nM.
